“Also recorded” adds a separate entry of the source.
Assays:
[1] = Accelerated stability testing of PS20 (polysorbate content by mixed-mode chromatography with CAD)
Method: (§1) PS20 or PS80 obtained from different manufacturers (see Table 1) was dissolved in 20 mM aqueous buffer at pH 5.5 or 6.5 in a glass vial to a final concentration of 0.02% (w/v) polysorbate. The buffer salts used in the histidine buffers investigated were histidine chloride (HisCl) and various further histidine buffer salts (see below, all obtained from Sigma-Aldrich (now Merck KgaA)).
(§2) Degradation mechanisms of the polysorbates were explored using 20 mM imidazole chloride and 20 mM alanine chloride buffer salts. Also, HisCl buffer salt comprising solutions were prepared with the additional excipients of mannitol or trehalose (both Sigma-Aldrich) to determine the influence of sugars and their derivatives on polysorbate degradation. Finally, two different mAbs were used as the active agent that each contained 10 mg/mL mAb, 0.02% PS80 HX2 and 20 mM HisCl buffer salt at pH 6.5. The therapeutic protein solutions were provided by Lek d.d. (Mengeš, Slovenia). In all cases, the starting point samples were collected immediately and stored at −80° C. The vials were then placed into a 50° C. incubator for up to 2 months, with samples collected at 1 month and further samples in some cases at 2 months. All of these samples were stored at −80° C. for subsequent analysis.
(§3) The polysorbate contents were analysed and quantified using a method based on mixed-mode chromatography, as mixed anion exchange and reversed phase, combined with a charged aerosol detector (CAD). The external standard approach was used for quantification of the surfactants. Chromatographic analysis was carried out using the method of Hewitt et al. (Hewitt, D. et al. J. Chromatogr. A 1218, 2138-2145 (2011).
(§4) Analytes were separated using a Waters Oasis MAX column (30 μm particle size, 2.1 mm×20 mm), column temperature 30° C., flow rate 1 ml/min and a total run time of 10 min. The injection volume was 10 μL. Initial conditions were set at 90% solvent A (2% formic acid in purified water) and 10% solvent B (2% formic acid in isopropanol). Solvent B was increased to 20% in the first minute and held for 2.4 min. POE sorbitan esters were eluted using a step gradient of 20% to 100% B over 0.1 min, followed by an equilibration step of 10% B for 0.9 min.

[2] = Accelerated stability testing of PS80 (polysorbate content by mixed-mode chromatography with CAD)
Method: as §1, §2, §3, §4

[3] = as reported in prior work; cited from earlier work
[4] = Accelerated stability testing of PS80 HX2 (polysorbate content by mixed-mode chromatography with CAD); details: for degradation of PS80 HX2 in the presence of mAb1 / degradation of PS80 HX2 in the presence of mAb2: pH 6.5; for degradation of polysorbate 80 HX2: 0.02% w/v PS80 HX2, 20 mM histidine buffer salt, pH 6.5, 50° C.
Method: as §1, §2, §3, §4

[5] = 0.02% w/v PS20, 20 mM histidine chloride, pH 6.5, 50° C., 1 month
[6] = 0.02% w/v PS80, 20 mM histidine chloride, pH 6.5, 50° C., 1 month

O=C(O)CN(CCN(CC(=O)O)CC(=O)O)CC(=O)O [EDTA]
effect of added excipient on degradation of PS20 [1, 5]: did not slow down the degradation | effect of added excipient on degradation of PS80 [2, 6]: did not slow down the degradation

[Cl-].[Na+] [NaCl]
effect of added excipient on degradation of PS20 [1, 5]: did not slow down the degradation | effect of added excipient on degradation of PS80 [2, 6]: did not slow down the degradation

CC(=O)O.N[C@@H](Cc1c[nH]cn1)C(=O)O [histidine acetate]
oxidative degradation in buffer system of histidine and histidine acetate [3]: promoted oxidative degradation

N[C@@H](Cc1c[nH]cn1)C(=O)O.O=C(O)CC(O)C(=O)O [histidine malate]
degradation of PS20 (Merck) ([1]; pH 5.5): significantly less degradation | degradation of PS80 HX2 in the presence of mAb1 [4]: no significant degradation | degradation of PS80 HX2 in the presence of mAb2 [4]: no significant degradation | degradation of PS80 (Merck) ([2]; pH 5.5): significantly less degradation

N[C@@H](Cc1cnc[nH]1)C(=O)O.O=C(O)CCC(=O)C(=O)O [histidine α-ketoglutarate]
degradation of polysorbate 80 HX2 ([4]; 1 month): major to almost complete degradation

Cl.c1c[nH]cn1 [imidazole chloride]
degradation of PS80 HX2 ([4]; 0.02% w/v PS80 HX2, 20 mM buffer salt, AlaCl pH 5.0 or 6.0, ImiCl pH 5.0, 6.5 or 7.0, 50° C., 1 month): degraded almost entirely; also recorded: Polysorbate degradation was detected

OC[C@@H](O)[C@@H](O)[C@H](O)[C@H](O)CO [mannitol]
effect of added excipient on degradation of PS20 ([1]; pH 6.5): did not slow down the degradation | effect of added excipient on degradation of PS80 ([2]; pH 6.5): did not slow down the degradation

OC[C@H]1O[C@H](O[C@H]2O[C@H](CO)[C@@H](O)[C@H](O)[C@H]2O)[C@H](O)[C@@H](O)[C@@H]1O [trehalose]
effect of added excipient on degradation of PS20 ([1]; pH 6.5): did not slow down the degradation | effect of added excipient on degradation of PS80 ([2]; pH 6.5): did not slow down the degradation

alanine chloride
degradation of PS80 HX2 ([4]; pH 5): no degradation

histidine chloride [reference compound]
degradation of PS20 ([1]; pH 5.5): severe degradation | degradation of PS20 (Merck) ([1]; pH 5.5): showed degradation | degradation of PS80 HX2 in the presence of mAb1 [4]: significant degradation | degradation of PS80 HX2 in the presence of mAb2 [4]: significant degradation | degradation of PS80 ([2]; pH 5.5): severe degradation | degradation of PS80 (Merck) ([2]; pH 5.5): showed degradation

histidine glutarate
degradation of polysorbate 80 HX2 ([4]; 1 month): major to almost complete degradation

polyoxyethylene (20) sorbitan monooleate [PS80]
rate of degradation compared with PS20 samples from the same manufacturer ([2]; pH 5.5): generally degrading faster
